The values that follow come from patent US20110092582A1, “New Terpenes And Macrocycles” (MERCK PATENT GESELLSCHAFT, priority 2008, published 2011).

In this assay the target is T1, human TGR5 (Homo sapiens, UniProt Q8TDU6).
T1 construct: expressed in transfected cells; host or cells: BHK cells
T1 sequence (Q8TDU6 1-330): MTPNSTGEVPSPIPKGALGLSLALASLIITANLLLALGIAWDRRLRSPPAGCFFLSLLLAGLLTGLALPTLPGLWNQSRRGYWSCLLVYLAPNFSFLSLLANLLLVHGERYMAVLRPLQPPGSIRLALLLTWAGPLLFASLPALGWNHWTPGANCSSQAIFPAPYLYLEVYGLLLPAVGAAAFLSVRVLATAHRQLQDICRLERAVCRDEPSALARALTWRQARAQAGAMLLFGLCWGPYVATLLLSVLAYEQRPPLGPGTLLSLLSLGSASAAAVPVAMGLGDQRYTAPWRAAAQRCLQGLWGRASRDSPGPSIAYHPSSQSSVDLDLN
Kind of assay: cAMP production in BHK cells expressing the human TGR5 (CisBio cAMP kit), normalized to LCA = 100%. Format: cell-based. The note with it: BHK cells expressing human TGR5, 30 minutes incubation. On the procedure: The activity of the natural products, with respect to their TGR5 activating capacities, was analyzed as follows:
BHK cells, expressing the human TGR5, were seeded into 384-well plates and grown overnight. The next day, natural test compounds (and LCA as positive control) were incubated on the cells for 30 minutes. As TGR5 couples to […] proteins, the increase of cellular cAMP production, as a measure for TGR5 activity, was analyzed by using a commercially available cAMP kit (CisBio international). The cAMP production was measured according to the kit manufacturer's protocol. Data were normalized by setting the cAMP production induced by LCA to 100% activity. EC50 values were determined by using the GraphPad PrismSoftware (Graph. Pad Software Inc.).
Background: Changes in cAMP serve as a functional read-out for many G protein-coupled receptors.

The term EC50 denotes the concentration giving half of the maximal effect. A higher EC50 goes with a less potent agent. In the case of `CCC(C)C1OC(=O)C(Cc2ccccc2)NC(=O)C(C)C/C(C)=C/C(C)C(O)/C(C)=C/C1C` (centres unmarked) [A4, (8E,12E)-3-benzyl-15-sec-butyl-11-hydroxy-6,8,10,12,14-pentamethyl-1-oxa-4-azacyclopentadeca-8,12-diene-2,5-dione], the EC50 (unit inferred) stood at 400 nM.
`C=CC1C(CO)=CCC2C1CCC1C(C)(C)C(=O)CCC21C` (centres unmarked) [A1, 17-hydroxy-12,15-cleistanthadiene-3-one]: the EC50 is 3000 nM.
